Series [1] deals with Normotensive New Zealand White rabbits. Briefly: In vivo rabbit model of IOP (contact tonometer). As to conditions: for decrease of IOP over a saline control: figure legends (FIGS. 5-8), 256 μg dose of siRNA per administration; for IOP Reduction (% of saline control): mean normalized maximum percentage of IOP reduction ± SD, topical to corneal surface, once daily for four consecutive days. The method, then: Normotensive New Zealand White rabbits (males, 2-3 kg) were used in the in vivo assays. The animals were kept in individual cages with free access to food and water. Animals were submitted to artificial 12 hours light/darkness cycles to avoid uncontrolled circadian oscillations of IOP and all experiments were performed at the same time of day to control for any fluctuations in IOP due to circadian oscillations. Animal handling and treatment were carried out in accordance with the European Communities Council Directive (86/609/EEC) and the statement of the Association for Research in Vision and Ophthalmology on the Use of Animals in Ophthalmic and Vision Research. Each animal was used for only one experiment.
IOP measurements were done using a contact tonometer (TonoPen XL, Mentor, Norwell, Mass.) due to past success of measuring intraocular pressures within the range of 3 to 30 mm Hg in rabbits (Abrams et al., 1996, Invest Ophthalmol Vis Sci. 37:940-4). Measurements were performed by delicately applying the tonometer's sensor to the corneal surface of the animal. All measurements fell within the 3 to 30 mm Hg interval with the mean baseline value of intraocular pressure being 17.0±0.39 mm Hg for untreated animals (n=100). In order to avoid distress to the animal, rabbits were topically anesthetized (10 μl of oxibuprocaine/tetracaine, 0.4%/1%, in a saline solution (1/4 v:v)) prior to IOP measurement.
Commercially available drugs were typically administered to the animals by instilling a small volume (typically 40 μl) on the corneal surface. Contralateral eyes were treated with the vehicle alone and were used as controls in each experiment.
siRNA molecules or commercially available drugs were typically administered to the animals as follows. Doses of siRNA in saline solution (0.9% w/v) to a final volume of 40 μl were applied to the corneal surface of one eye each day during four consecutive days. The opposite eye was taken as a control and 40 μl of sterile saline (0.9% w/v) was instilled on it at the same time points. Commercially available drugs were typically administered to the animals by instilling a small volume (typically 40 μl) on the corneal surface. Contralateral eyes were treated with the vehicle alone and were used as controls in each experiment. The IOP was measured before each application and at 2 h, 4 h and 6 h following the instillation for 10 days.
The data are summarized in Table 2 where values represent the mean of the normalized maximum percentage of IOP reduction after siRNA treatment and their standard deviations. The decrease in IOP was statistically significant for all the treated targets.

The test system of another series is PTGS2. Briefly: siRNA transfection of cells, real time PCR of target gene expression. It counts as cell-based. As to conditions: 100 nM siRNA, mean ± SD. The method, then:
Cells (either NPE, OMDC, or HEK293 cells) were incubated with various siRNA molecules and assayed for expression of the native mRNA corresponding to the siRNA molecule. One day prior to transfection, 2−4×10^5 cells were seeded into each well of a 6 well plate in 3 ml of growth medium (DMEM, 10% serum, antibiotics and glutamine) and incubated under normal growth conditions (37° C. and 5% CO2). Lipofectamine 2000 Reagent (Invitrogen Corporation, Carlsbad, Calif.) was used to transfect the cells with the siRNA molecules. The protocol supplied by the manufacturer was followed. Briefly, siRNA molecules were added to cells that were 30%-50% confluent to a final concentration of 100 nM. Prior to addition to the cells, the siRNA molecule was diluted in 250 μl DMEM and incubated at room temperature for 5 minutes. The siRNA was then mixed with 6 μl of Lipofectamine 2000 Reagent that also had been diluted in 250 μl DMEM and the mixture was incubated at room temperature for 20 minutes. The siRNA/Lipofectamine mixture was added to the cells drop-wise with 2 ml of fresh growth medium low in antibiotics. After swirling the plates to ensure uniform distribution of the transfection complexes, the cells were incubated under normal growth conditions for 24 hours. After incubation with either of the transfection complexes, the medium was removed and replaced with 3 ml of fresh complete growth medium. mRNA was collected from cells at 24, 48 and 72 hours post-transfection.
After transfection and incubation with a siRNA molecule, total RNA fractions were extracted from cells using protocols well known in the art. The effect of siRNAs on target gene expression was analyzed by real time PCR and semi-quantitative PCR according to standard protocols. Approximately 250 ng of total RNA was used for reverse transcription followed by PCR amplification with specific primers for the target gene in a reaction mixture containing SYBR Green I Dye (Applied Biosystems, Foster City, Calif.). Basic PCR conditions comprised an initial step of […], followed by 40 cycles of 5 s at 95° C., 10 s at 62° C. and 15 s at 72° C. Quantification of beta-actin mRNA was used as a control for data normalization.
The values represent the mean of the percentage of siRNA interference of each gene expression once normalized with the control cells and their standard deviations.

d = 2'-deoxy (DNA)

As for “SEQ ID NO: 5: siRNA targeting carbonic anhydrase IV (CA4) (CAUCGUCACCACCAAGGCA; two-thymidine 3' overhang, other chemistry not given here; listed as Homo sapiens)”, in series [1], the “decrease of IOP over a saline control” value is 16% and the “IOP Reduction (% of saline control)” value stood at 14.47 ± 5.00%.

For the substance “SEQ ID NO: 105: siRNA targeting adrenergic, beta-1-, receptor (ADRB1) (CGACCCCAAGUGCUGCGAC; 3' dTdT, sugars by position and backbone not given here; listed as Homo sapiens)”, in series [1], the “decrease of IOP over a saline control” value came out at 25% and the “IOP Reduction (% of saline control)” value came out at 28.04 ± 2.98%.

For the substance “SEQ ID NO: 139: siRNA targeting human adrenergic, beta-2-, receptor (ADRB2) (CAUUGUGCAUGUGAUCCAG; listed as RNA, chemistry not given here; listed as Homo sapiens)”, the “decrease of IOP over a saline control” value in series [1] stood at 22%.

As for “SEQ ID NO: 189: siRNA targeting human acetylcholinesterase (ACHE) (CCGUGAGCUGAGCGAGGAC; two-thymidine 3' overhang, other chemistry not given here; listed as Homo sapiens)”, the “decrease of IOP over a saline control” value in series [1] turned out to be 25%.

For “SEQ ID NO: 421: siRNA targeting PTGS2 (CACAACAGAGUAUGCGAUG; 3' dTdT, sugars by position and backbone not given here; listed as Homo sapiens)”, the figures for the “% of gene transcript level in control cells” value with PTGS2 (24 h post-transfection) and with PTGS2 (48 h post-transfection) were 81.00 ± 13.54% and 66.85 ± 18.67%, respectively.

As for “SEQ ID NO: 477: siRNA targeting PTGS2 (CACUGCCUCAAUUCAGUCU; 3' dTdT, sugars by position and backbone not given here; listed as Homo sapiens)”, the “% of gene transcript level in control cells” value with PTGS2 (24 h post-transfection) was 75.45 ± 14.71%; in the series on PTGS2 (48 h post-transfection) it was 61.83 ± 16.96%.

Turning to “SEQ ID NO: 522: siRNA targeting carbonic anhydrase XII (CA12) (AUGAUCAACAACUUCCGGC; two-thymidine 3' overhang, other chemistry not given here; listed as Homo sapiens)”, in series [1], the “IOP Reduction (% of saline control)” value worked out at 24.30 ± 1.29%.

Turning to “SEQ ID NO: 774: siRNA targeting AGTR2 (angiotensin II receptor, type 2) (GCAUCUUAUAUAGUUCCCC; two-thymidine 3' overhang, other chemistry not given here; listed as Homo sapiens)”, in series [1], the “IOP Reduction (% of saline control)” value is 11.22 ± 1.53%.

In the case of “SEQ ID NO: 1399: siRNA targeting ATP1A1 (ATPase, Na+/K+ transporting, alpha 1 polypeptide) (CUGGAACUCUGACUCAGAA; 3' dTdT, sugars by position and backbone not given here; listed as Homo sapiens)”, in series [1], the “IOP Reduction (% of saline control)” value amounted to 18.13 ± 1.39%.

For “SEQ ID NO: 1820: siRNA targeting ATP1B2 (ATPase, Na+/K+ transporting, beta 2 polypeptide) (GUUCCACGUGAACUACACA; 3' dTdT, sugars by position and backbone not given here; duplex siRNA; listed as Homo sapiens)”, in series [1], the “IOP Reduction (% of saline control)” value is recorded as 16.32 ± 0.91%.

With “SEQ ID NO: 1838: siRNA targeting rabbit carbonic anhydrase II; rabbit homolog of SEQ ID NO: 73 (GAUUGGCAGUGCUACACCA; 3' dTdT, sugars by position and backbone not given here; duplex siRNA; listed as Oryctolagus sp.)”, the “IOP Reduction (% of saline control)” value in series [1] was 24.84 ± 3.41%.

With “SEQ ID NO: 1841: siRNA targeting rabbit adrenergic, beta-2-, receptor; rabbit homolog of SEQ ID NO: 139 (CAUCGUGCACGUGAUCCAG; 3' dTdT, sugars by position and backbone not given here; duplex siRNA; listed as Oryctolagus sp.)”, the “IOP Reduction (% of saline control)” value in series [1] is reported as 21.18 ± 1.88%.

As for “SEQ ID NO: 1846: siRNA targeting rabbit acetylcholinesterase; rabbit homolog of SEQ ID NO: 189 (CCGUGAGCUGAGUGAGGAC; two-thymidine 3' overhang, other chemistry not given here; listed as Oryctolagus sp.)”, the “IOP Reduction (% of saline control)” value in series [1] worked out at 25.25 ± 2.70%.

In the case of “SEQ ID NO: 1848: siRNA targeting rabbit selectin E (SELE); rabbit homolog of SEQ ID NO: 262 (GCCAACUUGUAAAGCUGUG; 3' dTdT, sugars by position and backbone not given here; duplex siRNA; listed as Oryctolagus sp.)”, the “IOP Reduction (% of saline control)” value in series [1] amounted to 21.80 ± 1.74%.

For the substance “SEQ ID NO: 1850: siRNA targeting PTGS1; rabbit homolog of SEQ ID NO: 322 (CGUGAGCUAUUACACGCGU; 3' dTdT, sugars by position and backbone not given here; duplex siRNA; listed as Oryctolagus sp.)”, in series [1], the “IOP Reduction (% of saline control)” value was 14.62 ± 1.93%.

Consider “SEQ ID NO: 1856: siRNA, rabbit homolog of SEQ ID NO: 546; target printed ADRAIA (GACCGACAAAUCCGACUCG; 3' dTdT, sugars by position and backbone not given here; duplex siRNA; listed as Oryctolagus sp.)”, for which, in series [1], the “IOP Reduction (% of saline control)” value worked out at 9.51 ± 1.04%.

As for “SEQ ID NO: 1858: siRNA, rabbit homolog of SEQ ID NO: 619; target printed ADRAM (GAACUUUCAUGAGGACACC; 3' dTdT, sugars by position and backbone not given here; duplex siRNA; listed as Oryctolagus sp.)”, in series [1], the “IOP Reduction (% of saline control)” value came to 17.48 ± 1.30%.

Consider “SEQ ID NO: 1859: siRNA targeting AGTR1; rabbit homolog of SEQ ID NO: 705 (ACUCAAGACUGUGGCCAGU; 3' dTdT, sugars by position and backbone not given here; duplex siRNA; listed as Oryctolagus sp.)”, for which the “IOP Reduction (% of saline control)” value in series [1] was 9.72 ± 1.35%.

Take “SEQ ID NO: 1860: siRNA targeting ACE1; rabbit homolog of SEQ ID NO: 866 (CUGGAACUAUAACACCAAC; two-thymidine 3' overhang, other chemistry not given here; listed as Oryctolagus sp.)”: in series [1], the “IOP Reduction (% of saline control)” value came to 17.51 ± 1.28%.
